Measured values from patent US11085022B2 (priority 2014, dated 2021).

Tests used:
Streptococcus pneumoniae = experiment: Survival time of streptococcal pneumonia model mice; format: in vivo; conditions: 10 mg/kg, 7 administrations
Protocol: 48 inflammation model mice were randomized to 4 groups, each group having 12 animals. […] All the animals were administered at days 1, 2, 3, 4, 6, 8, and 10 after surgery, and a total of 7 administrations were presented. Groups given with the neutrophil granulocytes of the same density and the physiological saline of the same volume were also set and used as a blank control.

[1] = In-vivo distribution and ear targeting in ear swelling model mice; conditions: male, mouse, 15 mg/kg
Protocol: Ear swelling mouse model: Round pieces of filter paper that were 7 mm in diameter and soaked with dimethyl benzene were tightly attached for 15 s to the right ears of clean-grade male mice weighed 18-22 g.
(§1) 72 mice with inflammation were randomized to 2 groups, each group having 36 animals. Before administration, the mice were fasted, but allowed to free access to water overnight. […] 0.167 h, 0.5 h, 1 h, 2 h, 4 h, 8 h, 12 h, 24 h, 48 h, 72 h, 96 h, and 120 h after administration, the eyeballs were removed to collect the blood, and then the mice were sacrificed. The heart, liver, spleen, kidney, and ear tissues were removed, washed with physiological saline, and weighed after the residual physiological saline was aspirated off with filter paper.
(§2) The tissue samples (heart, liver, spleen, kidney, and ear) from the mice with inflammation were weighed, placed in a blood collection tube, added with 2 mL physiological saline, and dispersed by a tissue homogenizer at a high speed, to give a tissue homogenate. 200 μL acetonitrile was added to 200 μL of each tissue homogenate, vortexed for 5 min, and centrifuged for 10 min at 10000×g.
The ear targeting efficiency (Te) refers to the ratio of AUCs of the same preparation in the ear and in other tissues. […]

ear swelling model mice = experiment: Degree of ear swelling in ear swelling model mice; format: in vivo; conditions: 15 mg/kg; compared with the physiological saline group; difference in the weight of the ears
Protocol: 48 inflammation model mice were randomized to 4 groups, each group having 12 animals. […] A control group having 12 mice with primary tumor was also set. […] All the animals were administered at days 1, 2, 3, 4, 6, 8, and 10 after surgery, and a total of 7 administrations were presented. Groups given with the neutrophil granulocytes of the same density and the physiological saline of the same volume were also set and used as a blank control. The mice were administrated for 3 consecutive days, and then sacrificed by cervical vertebra dislocation after the 3 administrations. Round specimens were punched from the same portion of the left and the right ears by a 7 mm punch and weighed on an analytical balance. The degree of ear swelling was indicated by the difference in the weight of the ears, and the anti-inflammatory effects of the drugs were compared, as shown in FIG. 15.

[2] = In-vivo distribution and paw targeting in adjuvant arthritis model mice; conditions: mouse; for concentration at 0.5 h / concentration at 1 h / concentration at 2 h / concentration at 4 h / concentration at 8 h / concentration at 12 h: 15 mg/kg, iv ibuprofen 15 mg/kg
Protocol: (§3) Adjuvant arthritis mouse model: The BCG vaccine was inactivated for 1 hr in a water bath at 80° C., and ground and mixed fully with autoclaved paraffin, to prepare a 10 mg/ml complete Freund adjuvant (CFA). 0.1 ml CFA was intracutaneously injected into the metatarsal in the right rear foot of the mice for inflammation induction.
as §1, with “the metatarsal tissue in the right rear foot” for “ear tissues”
as §2, with “metatarsal in the right rear foot)” for “ear)”
The paw targeting efficiency (Te) refers to the ratio of AUCs of the same preparation in the inflammatory site, that is, the paw, and in other tissues. […] The larger the Te is, the higher the selectivity of the preparation for the non-specific inflammatory site (the metatarsal in the right rear foot) will be, as compared with the selectivity for other comparative tissues.

[3] = system: adjuvant arthritis model mice; experiment: Osteoarthritis index score in adjuvant arthritis model mice; format: in vivo; conditions: 15 mg/kg, 7 administrations; compared with the physiological saline group
Protocol: as §3

Question: With `C[C@H]1COc2c(N3CCN(C)CC3)c(F)cc3c(=O)c(C(=O)O)cn1c23` [levofloxacin] as the compound, how does the survival time (Streptococcus pneumoniae) read?
Answer: about 21 days

Question: Which concentration at 1 h [1] does the source give for `CC(C)Cc1ccc(C(C)C(=O)O)cc1` (centres unmarked) [ibuprofen] here?
Answer: 3990 ng/g

Question: What about the “degree of ear swelling” value (ear swelling model mice) of the same compound?
Answer: no obvious improvement

Question: And the “organ(s) with the largest distribution” value [2]?
Answer: liver

Question: What about the concentration at 0.5 h ([2]; Distribution in Heart) of the same compound?
Answer: 6350 ng/g

Question: What about the concentration at 1 h ([2]; Distribution in Heart) of the same compound?
Answer: 4240 ng/g

Question: And the concentration at 2 h ([2]; Distribution in Heart)?
Answer: 2990 ng/g

Question: What about the concentration at 4 h ([2]; Distribution in Heart) of the same compound?
Answer: 1870 ng/g

Question: What about the concentration at 8 h ([2]; Distribution in Heart) of the same compound?
Answer: 550 ng/g

Question: What about the concentration at 12 h ([2]; Distribution in Heart) of the same compound?
Answer: 340 ng/g

Question: And the concentration at 0.5 h ([2]; Distribution in Kidney)?
Answer: 2790 ng/g

Question: And the concentration at 1 h ([2]; Distribution in Kidney)?
Answer: 3900 ng/g

Question: What about the concentration at 2 h ([2]; Distribution in Kidney) of the same compound?
Answer: 2680 ng/g

Question: And the concentration at 4 h ([2]; Distribution in Kidney)?
Answer: 1910 ng/g

Question: What about the concentration at 8 h ([2]; Distribution in Kidney) of the same compound?
Answer: 620 ng/g

Question: And the concentration at 12 h ([2]; Distribution in Kidney)?
Answer: 450 ng/g

Question: What about the concentration at 0.5 h ([2]; Distribution in Liver) of the same compound?
Answer: 11900 ng/g

Question: What about the concentration at 1 h ([2]; Distribution in Liver) of the same compound?
Answer: 10000 ng/g

Question: What about the concentration at 2 h ([2]; Distribution in Liver) of the same compound?
Answer: 8320 ng/g

Question: And the concentration at 4 h ([2]; Distribution in Liver)?
Answer: 7370 ng/g

Question: What about the concentration at 8 h ([2]; Distribution in Liver) of the same compound?
Answer: 6330 ng/g

Question: And the concentration at 12 h ([2]; Distribution in Liver)?
Answer: 2000 ng/g

Question: And the concentration at 0.5 h ([2]; Distribution in Spleen)?
Answer: 6010 ng/g

Question: What about the concentration at 1 h ([2]; Distribution in Spleen) of the same compound?
Answer: 3990 ng/g

Question: What about the concentration at 2 h ([2]; Distribution in Spleen) of the same compound?
Answer: 2420 ng/g

Question: What about the concentration at 4 h ([2]; Distribution in Spleen) of the same compound?
Answer: 1980 ng/g

Question: What about the concentration at 8 h ([2]; Distribution in Spleen) of the same compound?
Answer: 1210 ng/g

Question: And the concentration at 12 h ([2]; Distribution in Spleen)?
Answer: 670 ng/g

Question: And the concentration at 0.5 h ([2]; Distribution in paw)?
Answer: 430 ng/g

Question: And the concentration at 1 h ([2]; Distribution in paw)?
Answer: 370 ng/g

Question: And the concentration at 2 h ([2]; Distribution in paw)?
Answer: 210 ng/g

Question: What about the “time at which the peak score occurs” value [3] of the same compound?
Answer: prolonged somewhat
